e = 2'-O-(2-methoxyethyl) (MOE); d = 2'-deoxy (DNA)
Key:
Malat1 RNA = test: Antisense activity by RT-qPCR, Malat1, HEK cells; assay type: cell-based
Protocol: A431 cells were grown at 10,000 cells per well and pre-treated with a variety of growth factors to determine if the addition of exogenous growth factors affects antisense activity or uptake of modified antisense oligonucleotides in a cell. The growth factors used were EGF, insulin growth factor (IGF), transforming growth factor (TGF), […] (VEGF), hepatocyte growth factor (HGF), platelet growth factor (PGF) and fibroblasts growth factor (FGF). To test antisense activity, cells were treated for 4 hours with a growth factor or vehicle alone, and then treated with compound no. 25690 (complementary to Drosha), compound no. 395254 (complementary to Malat1), or vehicle alone. RNA was isolated from the cells and Drosha or Malat1 RNA levels were measured by RT-qPCR. Human primer probe set 13816 (forward sequence […], designated herein as SEQ ID NO: 3; reverse sequence […], designated herein as SEQ ID NO: 4; probe sequence […], designated herein as SEQ ID NO: 5) was used to measure Drosha mRNA levels and primer probe set RTS2736 (forward sequence […], designated herein as SEQ ID NO: 6; reverse sequence […], designated herein as SEQ ID NO: 7; probe sequence TGCCACATCGCCACCCCGT, designated herein as SEQ ID NO: 8) was used to measure Malat1 RNA levels. Drosha and Malat1 RNA levels were normalized to total RNA content, as measured by RIBOGREEN®. Results are presented in the tables below as normalized RNA levels, relative to untreated control cells.
HEK cells were transfected with 2 μg plasmid encoding EGFR using Lipofectamine 3000 (ThermoFisher) at 2 μg/million cells. Cells were grown for 2 weeks in G418 selection media to select clones overexpressing EGFR. Cells were treated with compound no. 395254 for 16 hours prior to RT-qPCR analysis for Malat1, as in Example 8. The results, shown in the table below, indicate that antisense activity was increased in cells with higher expression levels of EGFR.

A431 cells = test: Uptake of Cy3-labeled ASO by flow cytometry, A431 cells; assay type: cell-based
Protocol: Uptake of compound no. 446654 by A431 cells was measured by flow cytometry. A431 cells were treated with a growth factor for 4 hours prior to incubation with compound no. 446654 for 2 hours. Results are presented in the tables below as relative fluorescence units (RFU) and represent an average of three independent experiments.
Uptake of compound no. 446654 was measured in siRNA treated A431 cells via flow cytometry, as described in example 8. The results are presented in the tables below and indicate that uptake of compound no. 446654 was unaffected by EGFR expression level.

## GGCATATGCAGATAATGTTC (sugars from the 5' end e5 d10 e5, all phosphorothioate, methylation of C not given here) [compound 395254]
Malat1 RNA; 1 nM, HEK cells overexpressing EGFR
  Malat1 RNA (% Control): 100 % control
Malat1 RNA; 1 nM, Wild type HEK cells
  Malat1 RNA (% Control): 100 % control
Malat1 RNA; 2 nM, HEK cells overexpressing EGFR
  Malat1 RNA (% Control): 77.8 % control
Malat1 RNA; 2 nM, Wild type HEK cells
  Malat1 RNA (% Control): 98.3 % control
Malat1 RNA; 3.9 nM, HEK cells overexpressing EGFR
  Malat1 RNA (% Control): 73.4 % control
Malat1 RNA; 3.9 nM, Wild type HEK cells
  Malat1 RNA (% Control): 96 % control
Malat1 RNA; 7.8 nM, HEK cells overexpressing EGFR
  Malat1 RNA (% Control): 73.3 % control
Malat1 RNA; 7.8 nM, Wild type HEK cells
  Malat1 RNA (% Control): 87.5 % control
Malat1 RNA; 15.6 nM, HEK cells overexpressing EGFR
  Malat1 RNA (% Control): 68.1 % control
Malat1 RNA; 15.6 nM, Wild type HEK cells
  Malat1 RNA (% Control): 81.4 % control
Malat1 RNA; 31.3 nM, HEK cells overexpressing EGFR
  Malat1 RNA (% Control): 62.2 % control
Malat1 RNA; 31.3 nM, Wild type HEK cells
  Malat1 RNA (% Control): 86.2 % control
Malat1 RNA; 62.5 nM, HEK cells overexpressing EGFR
  Malat1 RNA (% Control): 62.4 % control
Malat1 RNA; 62.5 nM, Wild type HEK cells
  Malat1 RNA (% Control): 95.4 % control
Malat1 RNA; 125 nM, HEK cells overexpressing EGFR
  Malat1 RNA (% Control): 55.9 % control
Malat1 RNA; 125 nM, Wild type HEK cells
  Malat1 RNA (% Control): 82.7 % control
Malat1 RNA; 250 nM, HEK cells overexpressing EGFR
  Malat1 RNA (% Control): 52.9 % control
Malat1 RNA; 250 nM, Wild type HEK cells
  Malat1 RNA (% Control): 72.1 % control
Malat1 RNA; 1000 nM, HEK cells overexpressing EGFR
  Malat1 RNA (% Control): 36.5 % control
Malat1 RNA; 1000 nM, Wild type HEK cells
  Malat1 RNA (% Control): 47.1 % control
Malat1 RNA; 2000 nM, HEK cells overexpressing EGFR
  Malat1 RNA (% Control): 35.3 % control
Malat1 RNA; 2000 nM, Wild type HEK cells
  Malat1 RNA (% Control): 28.5 % control
Malat1 RNA; 5000 nM (so in the source), HEK cells overexpressing EGFR
  Malat1 RNA (% Control): 44.1 % control
Malat1 RNA; 5000 nM (so in the source), Wild type HEK cells
  Malat1 RNA (% Control): 54.8 % control
Malat1 RNA; 16 hours
  antisense activity in cells with higher expression levels of EGFR: increased

## Cy3-^mCesTesGes^mCesTesAdsGds^mCdsTds^mCdsTdsGdsGdsAdsTesTesTesGesAe (antisense CTGCTAGCCTCTGGATTTGA; listed as DNA, chemistry not fully specified) [compound 446654, Cy3-labeled PS-ASO]
A431 cells; 0.015 μM, Control Luciferase siRNA
  RFU: 22.3 RFU
A431 cells; 0.015 μM, EGFR siRNA-1
  RFU: 25.3 RFU
A431 cells; 0.015 μM, EGFR siRNA-2
  RFU: 24.7 RFU
A431 cells; 0.03 μM, Control Luciferase siRNA
  RFU: 31.3 RFU
A431 cells; 0.03 μM, EGFR siRNA-1
  RFU: 33.0 RFU
A431 cells; 0.03 μM, EGFR siRNA-2
  RFU: 29.0 RFU
A431 cells; 0.06 μM, Control Luciferase siRNA
  RFU: 136 RFU
A431 cells; 0.06 μM, EGFR siRNA-1
  RFU: 133 RFU
A431 cells; 0.06 μM, EGFR siRNA-2
  RFU: 101 RFU
A431 cells; 0.12 μM, Control
  RFU: 1475 RFU
A431 cells; 0.12 μM, Control Luciferase siRNA
  RFU: 359 RFU
A431 cells; 0.12 μM, EGF
  RFU: 1772 RFU
A431 cells; 0.12 μM, EGFR siRNA-1
  RFU: 444 RFU
A431 cells; 0.12 μM, EGFR siRNA-2
  RFU: 292 RFU
A431 cells; 0.12 μM, FGF
  RFU: 1420 RFU
A431 cells; 0.12 μM, HGF
  RFU: 1204 RFU
A431 cells; 0.12 μM, IGF
  RFU: 1659 RFU
A431 cells; 0.12 μM, PGF
  RFU: 1321 RFU
A431 cells; 0.12 μM, TGF
  RFU: 1500 RFU
A431 cells; 0.12 μM, VEGF
  RFU: 1147 RFU
A431 cells; 0.25 μM, Control
  RFU: 1606 RFU
A431 cells; 0.25 μM, Control Luciferase siRNA
  RFU: 806 RFU
A431 cells; 0.25 μM, EGF
  RFU: 1917 RFU
A431 cells; 0.25 μM, EGFR siRNA-1
  RFU: 879 RFU
A431 cells; 0.25 μM, EGFR siRNA-2
  RFU: 852 RFU
A431 cells; 0.25 μM, FGF
  RFU: 1682 RFU
A431 cells; 0.25 μM, HGF
  RFU: 1481 RFU
A431 cells; 0.25 μM, IGF
  RFU: 1435 RFU
A431 cells; 0.25 μM, PGF
  RFU: 1275 RFU
A431 cells; 0.25 μM, TGF
  RFU: 1871 RFU
A431 cells; 0.25 μM, VEGF
  RFU: 1423 RFU
A431 cells; 0.5 μM, Control
  RFU: 2223 RFU
A431 cells; 0.5 μM, Control Luciferase siRNA
  RFU: 1392 RFU
A431 cells; 0.5 μM, EGF
  RFU: 2349 RFU
A431 cells; 0.5 μM, EGFR siRNA-1
  RFU: 1437 RFU
A431 cells; 0.5 μM, EGFR siRNA-2
  RFU: 1490 RFU
A431 cells; 0.5 μM, FGF
  RFU: 1827 RFU
A431 cells; 0.5 μM, HGF
  RFU: 2095 RFU
A431 cells; 0.5 μM, IGF
  RFU: 1917 RFU
A431 cells; 0.5 μM, PGF
  RFU: 2112 RFU
A431 cells; 0.5 μM, TGF
  RFU: 2081 RFU
A431 cells; 0.5 μM, VEGF
  RFU: 1973 RFU
A431 cells; 1.0 μM, Control
  RFU: 1565 RFU
A431 cells; 1.0 μM, Control Luciferase siRNA
  RFU: 2374 RFU
A431 cells; 1.0 μM, EGF
  RFU: 2532 RFU
A431 cells; 1.0 μM, EGFR siRNA-1
  RFU: 2614 RFU
A431 cells; 1.0 μM, EGFR siRNA-2
  RFU: 2906 RFU
A431 cells; 1.0 μM, FGF
  RFU: 2414 RFU
A431 cells; 1.0 μM, HGF
  RFU: 2533 RFU
A431 cells; 1.0 μM, IGF
  RFU: 2237 RFU
A431 cells; 1.0 μM, PGF
  RFU: 2487 RFU
A431 cells; 1.0 μM, TGF
  RFU: 2826 RFU
A431 cells; 1.0 μM, VEGF
  RFU: 2655 RFU
A431 cells; Time 0.25 hours, Control Luciferase siRNA
  RFU: 1082 RFU
A431 cells; Time 0.25 hours, EGFR siRNA-1
  RFU: 814 RFU
A431 cells; Time 0.25 hours, EGFR siRNA-2
  RFU: 950 RFU
A431 cells; Time 0.5 hours, Control Luciferase siRNA
  RFU: 1988 RFU
A431 cells; Time 0.5 hours, EGFR siRNA-1
  RFU: 1562 RFU
A431 cells; Time 0.5 hours, EGFR siRNA-2
  RFU: 1637 RFU
A431 cells; Time 1 hours, Control Luciferase siRNA
  RFU: 2315 RFU
A431 cells; Time 1 hours, EGFR siRNA-1
  RFU: 2308 RFU
A431 cells; Time 1 hours, EGFR siRNA-2
  RFU: 2698 RFU
A431 cells; Time 2 hours, Control Luciferase siRNA
  RFU: 2276 RFU
A431 cells; Time 2 hours, EGFR siRNA-1
  RFU: 2280 RFU
A431 cells; Time 2 hours, EGFR siRNA-2
  RFU: 2349 RFU
A431 cells; Time 4 hours, Control Luciferase siRNA
  RFU: 3103 RFU
A431 cells; Time 4 hours, EGFR siRNA-1
  RFU: 2854 RFU
A431 cells; Time 4 hours, EGFR siRNA-2
  RFU: 3069 RFU
A431 cells; Time 6 hours, Control Luciferase siRNA
  RFU: 4300 RFU
A431 cells; Time 6 hours, EGFR siRNA-1
  RFU: 3747 RFU
A431 cells; Time 6 hours, EGFR siRNA-2
  RFU: 3821 RFU
A431 cells; Time 8 hours, Control Luciferase siRNA
  RFU: 4988 RFU
A431 cells; Time 8 hours, EGFR siRNA-1
  RFU: 5048 RFU
A431 cells; Time 8 hours, EGFR siRNA-2
  RFU: 5145 RFU
A431 cells; growth factor 4 hours, then compound 2 hours
  total uptake, effect of growth factor treatment: not affected in a significant, dose dependent manner
A431 cells; siRNA treated A431 cells
  uptake, effect of EGFR expression level: unaffected

Reference: patent US20200407717A1, “METHODS OF MODULATING ANTISENSE ACTIVITY” (Ionis Pharmaceuticals, Inc., priority 2018, published 2020)
